{"source": "patent US20150190369A1", "about": "“QUERCETIN-3-GLUCOSIDE AND USES THEREOF” (priority 2012, published 2015)", "key": {"SREBP-2": {"tested_on": "SREBP-2", "assay": "Immunoblotting for SREBP-2-related proteins (proSREBP-2 proteolytic activation) in Huh7 cells", "assay_type": "cell-based, human", "conditions": "Huh7, 24 h, 5 μM Q3G, normalized for β-actin", "protocol": "FIGS. 9A and 9B are graphs illustrating the proSREBPs-2 mRNA and SREBP-2-related protein levels for cells exposed to Q3G. Cells were incubated for 24 h in medium 5 μM Q3G. FIG. 9A illustrates the results for quantitative RT-PCR for proSREBPs-2 mRNA levels. Values are the means of triplicate experiments±SEM. FIG. 9B illustrates the results for semi-quantitative immunoblotting for cellular SREBP-2-related protein. […]\nAt passage, Huh7 cells were routinely seeded at sub-confluence (˜10^6 cells/10-cm dish) in Dulbecco's modified Eagle's medium (DMEM) containing 10% fetal bovine serum (FBS) or LPDS (for experiments) and 50 μg/ml gentamycin. They were incubated overnight at 37° C., in a humidified 5% CO2-95% air atmosphere. Cells were treated or not with Q3G at defined concentrations and for defined lengths of time. Media were collected and centrifuged at 200 g for 5 min to sediment suspended cells; supernatants were collected and supplemented with 0.33 volumes of a 3×-concentrated PIC. […]\nCell lysates were fractionated by SDS-PAGE and electrophoretically transferred onto a polyvinylidene fluoride membrane. […] The signal was captured on X-ray film and immunoreactive bands analyzed by densitometry on a Syngene's ChemiGenius^2XE Bio Imaging System (Cambridge, Mass.) within the dynamic range of the instrument. […]"}, "[1]": {"conditions": "dogs, meal supplement; cited from earlier work"}, "[2]": {"conditions": "pigs, meal supplement; cited from earlier work"}, "PCSK9 mRNA": {"tested_on": "PCSK9 mRNA", "assay": "qRT-PCR for PCSK9 mRNA in MIN6 β-cells", "assay_type": "cell-based, mouse", "design": "increase in PCSK9 mRNA: dose or concentration left out as unconfirmed", "conditions": "MIN6, 24 h", "protocol": "(§1) Mouse insulinoma MIN6 cells were cultured in a 5% CO2-95% air atmosphere at 37° C. in DMEM medium containing 10% heat-inactivated fetal bovine serum, 1 mM Na-pyruvate, 2 mM L-glutamine, 25 mM D-glucose, and 28 μM β-mercaptoethanol. Q3G at a specific final concentration was supplemented to the culture medium and incubation was conducted for a selected length of time. Media were collected, spun at 600 g to sediment suspended cells, supplemented with 0.5 volumes of 3×RIPA-PIC (1×: 50 mM Tris-HCl, pH 8, 150 mM NaCl, 1% NP-40, 0.5% Na-deoxycholate and 0.1% SDS and PIC). Cells were lysed in 1×RIPA-PIC for immuno-blotting, or in RNA extraction buffer for qRT-PCR.\n(§2) For the mouse studies, the levels of specific mRNAs were quantified in a PCR-based fluorogenic assay using the Taqman technology (Holland et al., 1991). Briefly, total RNA was extracted using the RNeasy extraction kit and reverse-transcribed into cDNA using random hexameric primers and the Superscript II RNase H-Reverse Transcriptase. The cDNA was used as a template to produce PCR amplicons using FastStart TaqMan ProbeMaster-Rox master mix, primer pairs and the appropriate fluorescent probes) in the Stratagene Mx3005P thermocycler. Standard curves were established using varying amounts of pre-quantified amplicons of each transcript. The level of mRNA for the TATA-box binding protein (TBP) was used for normalization.\n(§3) MIN6 β-cells were incubated for 24 h in the presence of different concentrations of Q3G. Total RNA was extracted and analyzed by qRT-PCR for the levels of mRNA for PCSK9, LDLR, ABCA1 and ABCG1."}, "LDLR mRNA": {"tested_on": "LDLR mRNA", "assay": "qRT-PCR for LDLR mRNA in MIN6 β-cells", "assay_type": "cell-based, mouse", "design": "increase in LDLR mRNA: dose or concentration left out as unconfirmed", "conditions": "MIN6, 24 h", "protocol": "as §1, §2, §3"}, "LDLR": {"tested_on": "LDLR", "assay": "Immunofluorescence flow cytometry of cell surface LDLR on Huh7 cells", "assay_type": "cell-based, human", "conditions": "Huh7 pretreated 24 h with 5 μM Q3G versus untreated", "protocol": "Cells were seeded at 4×10^4 cell/10-cm dish in 3 ml of completed medium and incubated overnight. LPDS medium containing or not 5 μM Q3G was substituted and incubation resumed for 24 h. Subsequent steps were conducted with ice-cold solutions and at 4° C. Cell monolayers were rinsed with PBS, overlaid with PBS containing rabbit anti-LDLR antibody for 1 h, then with PBS containing Alexa Fluor-488-conjugated goat anti-rabbit Ig antibody for another 1 h. After a PBS rinse, the cells were overlaid with Versene, suspended in DMEM and analyzed in Benson-Dickenson XL flow cytometer at 492 nm and 520 nm excitation and emission wavelengths, respectively. Cell autofluorescence and non-specific fluorescence were assessed using cells not treated with the secondary and the primary antibody, respectively.\nTo be functionally relevant, Q3G-induced LDLR should accumulate at the cell surface of the hepatocyte cells where it could mediate LDL uptake. To verify the surface localization of the receptor, untreated and pretreated intact Huh7 cells were stained at 4° C. for LDLR by indirect immunofluorescence, and analyzed by fluorescence flow cytometry."}}, "note": "Like-named read-outs stand apart in the source and are kept apart here."}
{"compound": "O=c1c(O[C@@H]2O[C@H](CO)[C@@H](O)[C@H](O)[C@H]2O)c(-c2ccc(O)c(O)c2)oc2cc(O)cc(O)c12", "note": "[Q3G, quercetin-3-O-β-D-glucoside]", "values": [{"measurement": "increase of ratio of 65-kDa nuclear SREBP-2 over its 148-kDa ER precursor", "setting": "SREBP-2", "result": "up to 4 fold"}, {"measurement": "quercetin bioavailability versus quercetin aglycone and rutin", "setting": "[1]", "result": "significantly greater"}, {"measurement": "quercetin bioavailability versus quercetin aglycone and rutin", "setting": "[2]", "result": "significantly greater"}, {"measurement": "effect on PCSK9 mRNA levels", "setting": "PCSK9 mRNA; Q3G 8 mM and above", "result": "increased"}, {"measurement": "effect on PCSK9 mRNA levels", "setting": "PCSK9 mRNA; Q3G up to 4 mM", "result": "does not affect"}, {"measurement": "increase in PCSK9 mRNA", "setting": "PCSK9 mRNA; maximum Q3G concentration used", "result": 2.5, "unit": "fold"}, {"measurement": "effect on LDL-receptor mRNA levels", "setting": "LDLR mRNA; Q3G 8 mM and above", "result": "increased"}, {"measurement": "effect on LDLR mRNA levels", "setting": "LDLR mRNA; Q3G up to 4 mM", "result": "does not affect"}, {"measurement": "increase in LDLR mRNA", "setting": "LDLR mRNA; maximum Q3G concentration used", "result": 1.8, "unit": "fold"}, {"measurement": "increase of LDLR cell surface density", "setting": "LDLR", "result": 1.7, "unit": "fold"}]}
